According to article PMC5916922, “The Bexsero Neisseria meningitidis serogroup B vaccine antigen NHBA is a high-affinity chondroitin sulfate binding protein” (Scientific Reports, 2018):
Structures can show the parent of a compound that is named as a salt. Where two headings read alike, the source gives them in different places.

What was measured:
[1] = target: T1, NHBA (Neisseria Heparin Binding Antigen), recombinant (Neisseria meningitidis, UniProt Q7DD37); test: SPR, single cycle kinetics, immobilised NHBA
T1 construct: pET19b, His-tagged; forward primer codes from SPDVK (lipoprotein signal peptide removed); immobilised by amine coupling on CM5 chip
T1 sequence (Q7DD37 25-488): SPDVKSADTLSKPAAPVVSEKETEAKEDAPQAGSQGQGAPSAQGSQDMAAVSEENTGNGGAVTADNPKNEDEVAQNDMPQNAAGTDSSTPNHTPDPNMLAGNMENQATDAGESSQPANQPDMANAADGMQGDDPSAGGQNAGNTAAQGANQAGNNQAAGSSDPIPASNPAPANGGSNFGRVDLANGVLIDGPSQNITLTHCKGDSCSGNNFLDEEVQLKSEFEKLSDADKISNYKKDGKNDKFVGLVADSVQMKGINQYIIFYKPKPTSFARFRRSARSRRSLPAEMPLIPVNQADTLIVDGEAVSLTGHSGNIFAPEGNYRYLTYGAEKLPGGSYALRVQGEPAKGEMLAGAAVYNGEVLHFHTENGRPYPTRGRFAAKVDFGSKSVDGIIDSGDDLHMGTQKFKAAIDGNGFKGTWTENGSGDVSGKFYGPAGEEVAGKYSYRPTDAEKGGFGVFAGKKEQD

[2] = test system: NHBA (Neisseria Heparin Binding Antigen), recombinant (Neisseria meningitidis MC58 (serogroup B)); test: SPR; conditions: SPR: Biacore T200, CM5 chip, 1:5 dilution series 1 nM-100 uM, single cycle kinetics; ITC: nano-ITC, PBS-NHBA control (PBS implied); pH and temperature not …
[3] = test system: NHBA (Neisseria Heparin Binding Antigen), recombinant (Neisseria meningitidis MC58 (serogroup B)); test: ITC; conditions: SPR: Biacore T200, CM5 chip, 1:5 dilution series 1 nM-100 uM, single cycle kinetics; ITC: nano-ITC, PBS-NHBA control (PBS implied); pH and temperature not …
[4] = read-out: KD (μM) (mean ± standard deviation); recombinant NHBA amine-coupled to CM5 chip; glycan in flow
[5] = recombinant NHBA amine-coupled to CM5 chip; glycan in flow

CC(=O)N[C@H]1C(O)O[C@H](CO)[C@@H](O[C@@H]2O[C@@H](C)[C@@H](O)[C@@H](O)[C@@H]2O)[C@@H]1O[C@@H]1O[C@H](CO)[C@H](O)[C@H](OS(=O)(=O)O)[C@H]1O (stereo partly drawn) [8A, Sulfo Lewis A]
Kd [1, 4]: 33.4 ± 2.54 µM

O=P(O)(O)OC[C@H]1O[C@@H](O)[C@H](O)[C@@H](O)[C@@H]1O [compound 46, β-Glc6P]
Kd ([1]; recombinant NHBA amine-coupled to CM5 chip; glycan in flow; read-out: KD (μM) (mean ± standard deviation)): 0.056 ± 0.025 µM

CC(=O)N[C@H]1C(O)O[C@H](CO)[C@@H](O[C@@H]2O[C@H](CO)[C@H](O[C@H]3O[C@H](CO)[C@H](O)[C@H](O)[C@H]3O)[C@H](O)[C@H]2O)[C@@H]1O (stereo partly drawn) [2E, P1 antigen]
Kd [1, 4]: 14.9 ± 3.48 µM

O=S(=O)(O)O[C@@H]1[C@H](O[C@H]2O[C@@H]3CO[C@H]([C@H]2O)[C@H]3O[C@@H]2O[C@H](CO)[C@H](O)[C@H](O[C@H]3O[C@@H]4CO[C@@H]([C@H]4O)[C@H]3O)[C@H]2O)[C@@H](O)C(O)O[C@@H]1CO (stereo partly drawn) [12B, Neocarratetraose-4^1-O-sulfate (Na+)]
Kd [1, 4]: 0.446 ± 0.151 µM

503 bp PCR fragment of N. meningitidis genomic DNA
Kd [2]: 71 nM
Kd [3]: 3330 nM

CC(=O)N[C@H]1C(O)O[C@H](CO)[C@H](OS(=O)(=O)O)[C@@H]1O[C@@H]1OC(C(=O)O)=C[C@H](O)[C@H]1OS(=O)(=O)O (stereo partly drawn) [chondroitin disaccharide sulfated at 2 of GlcA/IdoA and 4 of GalNAc]
Kd [1, 5]: 0.5 µM

CC(=O)N[C@H]1C(O)O[C@H](COS(=O)(=O)O)[C@H](O)[C@@H]1O[C@@H]1OC(C(=O)O)=C[C@H](O)[C@H]1OS(=O)(=O)O (stereo partly drawn) [chondroitin sulfate type D disaccharide]
Kd [1, 5]: 0.0095 µM

CC(=O)N[C@H]1C(O)O[C@H](CO)[C@@H](O)[C@@H]1O[C@@H]1OC(C(=O)O)=C[C@H](O)[C@H]1O (stereo partly drawn) [13E, Hyaluronan disaccharide ΔDi-HA]
Kd [1, 4]: 0.13 ± 0.03 µM
